One block for each compound: values may come before it.
Columns and labels:
MDR1 (ABCB1) = MDR1 (ABCB1) (Homo sapiens, UniProt P08183); assay: Induction of human histidine10-tagged MDR1 ATPase activity expressed in BHK cells relative to basal activity
MDR3 (ABCB1) = MDR3 (ABCB1) (Mus musculus, UniProt P21447); assay: Induction of mouse cysteine-less MDR3 ATPase activity relative to basal activity
[1] = Permeability from apical to basolateral side of MDCK2 cell monolayer over expressing MDR1 assessed as drug concentration associated with cell at 5 uM after 1 hr of drug washout by methanol in presence of LSN335984; settings: dog
[2] = Octanol-water partition coefficient, log P of the compound
MDR1 [3] = assay: (§1) Permeability from apical to basolateral side of MDCK2 cells over expressing MDR1 at 5 uM after 1 hr; settings: dog, MDCK-MDR1
MDR1 [4] = assay: (§2) Permeability from apical to basolateral side of MDCK2 cells over expressing MDR1 at 5 uM in presence LSN335984 pretreated for 30 mins measured after 1 hr; settings: dog
MDR1 [5] = assay: (§3) Permeability from basolateral to apical side of MDCK2 cells over expressing MDR1 at 5 uM after 1 hr; settings: dog, MDCK-MDR1
MDR1 [6] = assay: (§4) Permeability from basolateral to apical side of MDCK2 cells over expressing MDR1 at 5 uM in presence LSN335984 pretreated for 30 mins measured after 1 hr; settings: dog
[7] = (§5) Efflux ratio of permeability from apical to basolateral over basolateral to apical side in MDCK2 cells over expressing MDR1 at 5 uM after 1 hr; settings: dog, MDCK-MDR1, 1 h, 5 µM
MDR1 [8] = assay: Efflux ratio of permeability from apical to basolateral over basolateral to apical side in MDCK2 cells over expressing MDR1 at 5 uM after 1 hr in presence LSN335984 pretreated for 30 mins measured after 1 hr; settings: dog
[9] = Permeability from apical to basolateral side of MDCK2 cell monolayer over expressing MDR1 assessed as drug concentration associated with cell at 5 uM after 1 hr of drug washout by methanol; settings: dog
[10] = Ratio of permeability from apical to basolateral side after 1 hr of drug washout by methanol to apical to basolateral side in MDCK2 cell monolayer over expressing MDR1 at 5 uM after 1 hr of drug washout by methanol in presence LSN335984; settings: dog, mdck-ii
MDR1 [11] = assay: as §5; settings: dog, MDCK-MDR1
[12] = as §1; settings: dog, MDCK-MDR1, 1 h, 5 µM
[13] = as §2; settings: dog, MDCK-MDR1, 1 h, 5 µM
[14] = as §3; settings: dog, MDCK-MDR1, 1 h, 5 µM
[15] = as §4; settings: dog, MDCK-MDR1, 1 h, 5 µM
[16] = biological target: T1, ATP-dependent translocase ABCB1 (Homo sapiens, UniProt P08183); assay: Inhibition of human MDR1 expressed in MDCK2 cells assessed as enhancement of Calcein-AM uptake treated 30 mins before Calcein-AM challenge measured after 20 mins
[17] = biological target: ATP-dependent translocase ABCB1 (Mus musculus, UniProt P21447); assay: Inhibition of verapamil-stimulated ATPase activity of mouse cysteine-less MDR3
[18] = biological target: T1, ATP-dependent translocase ABCB1; assay: Inhibition of verapamil-stimulated ATPase activity of human histidine10-tagged MDR1 expressed in BHK cells
[19] = human histidine10-tagged MDR1 expressed in BHK cells
[20] = MDCK-MDR1, with LSN335984 (concentration not stated)

Chain of MDR1 (ABCB1) (P08183 whole entry): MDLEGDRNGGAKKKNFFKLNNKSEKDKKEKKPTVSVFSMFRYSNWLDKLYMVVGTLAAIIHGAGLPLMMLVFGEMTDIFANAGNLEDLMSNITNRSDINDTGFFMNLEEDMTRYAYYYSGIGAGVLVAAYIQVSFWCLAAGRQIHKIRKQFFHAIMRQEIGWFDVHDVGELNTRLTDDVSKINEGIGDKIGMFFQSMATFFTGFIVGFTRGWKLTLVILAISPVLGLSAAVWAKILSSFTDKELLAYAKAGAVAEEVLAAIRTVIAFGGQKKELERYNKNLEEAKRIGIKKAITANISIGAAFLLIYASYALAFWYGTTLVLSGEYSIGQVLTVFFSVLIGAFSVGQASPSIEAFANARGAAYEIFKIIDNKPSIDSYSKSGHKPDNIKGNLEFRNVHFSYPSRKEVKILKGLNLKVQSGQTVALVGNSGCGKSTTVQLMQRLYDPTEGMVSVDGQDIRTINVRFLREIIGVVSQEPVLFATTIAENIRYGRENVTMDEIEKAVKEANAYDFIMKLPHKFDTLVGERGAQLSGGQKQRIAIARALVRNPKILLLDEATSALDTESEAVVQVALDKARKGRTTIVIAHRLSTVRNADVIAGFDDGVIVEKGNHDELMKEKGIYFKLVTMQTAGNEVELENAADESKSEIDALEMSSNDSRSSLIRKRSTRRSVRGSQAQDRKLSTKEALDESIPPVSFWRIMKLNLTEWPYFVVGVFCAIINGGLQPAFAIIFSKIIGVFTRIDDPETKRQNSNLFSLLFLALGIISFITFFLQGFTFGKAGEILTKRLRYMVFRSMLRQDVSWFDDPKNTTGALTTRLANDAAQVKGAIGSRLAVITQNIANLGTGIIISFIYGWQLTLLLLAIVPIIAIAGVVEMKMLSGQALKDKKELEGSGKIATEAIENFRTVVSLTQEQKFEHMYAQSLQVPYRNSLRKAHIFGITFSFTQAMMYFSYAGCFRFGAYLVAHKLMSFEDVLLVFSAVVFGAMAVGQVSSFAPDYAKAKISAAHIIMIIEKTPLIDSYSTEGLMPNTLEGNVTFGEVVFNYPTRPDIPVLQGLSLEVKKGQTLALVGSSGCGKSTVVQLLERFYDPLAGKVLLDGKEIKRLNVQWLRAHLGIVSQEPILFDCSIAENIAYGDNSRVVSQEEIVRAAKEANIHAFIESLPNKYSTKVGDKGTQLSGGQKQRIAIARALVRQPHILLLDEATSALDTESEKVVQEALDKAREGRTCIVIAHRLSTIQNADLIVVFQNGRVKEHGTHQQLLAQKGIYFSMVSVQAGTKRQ
T1 sequence (P08183 whole entry): as above
Chain of MDR3 (ABCB1) (P21447 whole entry): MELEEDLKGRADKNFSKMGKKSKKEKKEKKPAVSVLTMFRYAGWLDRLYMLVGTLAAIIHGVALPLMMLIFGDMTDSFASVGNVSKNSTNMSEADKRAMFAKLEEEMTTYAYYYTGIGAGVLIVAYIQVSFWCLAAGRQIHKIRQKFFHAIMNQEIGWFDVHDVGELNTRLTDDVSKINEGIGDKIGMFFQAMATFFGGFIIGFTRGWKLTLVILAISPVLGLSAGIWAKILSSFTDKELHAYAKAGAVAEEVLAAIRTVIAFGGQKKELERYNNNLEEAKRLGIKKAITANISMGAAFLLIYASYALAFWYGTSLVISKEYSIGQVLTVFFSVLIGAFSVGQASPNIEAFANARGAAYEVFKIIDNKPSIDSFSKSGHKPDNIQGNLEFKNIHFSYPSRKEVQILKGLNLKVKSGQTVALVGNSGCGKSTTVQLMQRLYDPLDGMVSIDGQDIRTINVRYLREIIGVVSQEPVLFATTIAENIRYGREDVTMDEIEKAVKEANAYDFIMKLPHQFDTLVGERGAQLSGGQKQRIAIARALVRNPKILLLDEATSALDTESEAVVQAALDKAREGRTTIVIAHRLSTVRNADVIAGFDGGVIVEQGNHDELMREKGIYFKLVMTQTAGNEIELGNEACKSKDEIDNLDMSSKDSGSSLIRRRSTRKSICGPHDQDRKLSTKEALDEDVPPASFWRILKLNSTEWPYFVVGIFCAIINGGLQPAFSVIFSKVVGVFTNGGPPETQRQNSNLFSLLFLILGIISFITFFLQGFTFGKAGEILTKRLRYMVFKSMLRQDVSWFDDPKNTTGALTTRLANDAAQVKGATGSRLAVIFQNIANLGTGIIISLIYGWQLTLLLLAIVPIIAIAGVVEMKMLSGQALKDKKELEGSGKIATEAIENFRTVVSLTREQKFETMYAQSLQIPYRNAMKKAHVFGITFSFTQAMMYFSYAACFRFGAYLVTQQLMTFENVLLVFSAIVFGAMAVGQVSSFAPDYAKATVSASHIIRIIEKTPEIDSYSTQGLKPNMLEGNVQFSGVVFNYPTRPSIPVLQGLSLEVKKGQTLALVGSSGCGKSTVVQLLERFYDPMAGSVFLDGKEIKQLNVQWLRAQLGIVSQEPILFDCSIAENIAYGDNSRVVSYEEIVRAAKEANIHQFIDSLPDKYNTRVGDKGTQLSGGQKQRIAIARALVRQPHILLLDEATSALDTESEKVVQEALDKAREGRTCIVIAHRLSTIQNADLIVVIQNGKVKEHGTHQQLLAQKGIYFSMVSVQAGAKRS
Chain of ATP-dependent translocase ABCB1 (Mus musculus, UniProt P21447) (P21447 whole entry, looked up): as the sequence (P21447 whole entry) above

Compound: CN(C)c1cccc(-c2c3ccc(=[N+](C)C)cc-3[se]c3cc(N(C)C)ccc23)c1
fold induction (MDR1 (ABCB1); [19]): 7.6

Compound: C[N+](C)=c1ccc2c(-c3ccccc3)c3cc4c5c(c3[te]c-2c1)CCCN5CCC4
fold induction (MDR1 (ABCB1); [19]): 3

Compound: COc1cccc(-c2c3ccc(=[N+](C)C)cc-3[se]c3cc(N(C)C)ccc23)c1
fold induction (MDR3 (ABCB1); mouse cysteine-less MDR3): 6.4 | fold induction (MDR1 (ABCB1); [19]): 2.5

Activity ([1]; mdck-ii, 1 h): 56% | logP [2]: 0.14
Compound: COc1cccc(-c2c3ccc(=[N+](C)C)cc-3sc3cc(N(C)C)ccc23)c1.[Br-]

Compound: CN(C)c1ccc2c(-c3ccc(CCl)cc3)c3ccc(=[N+](C)C)cc-3oc2c1.[Br-] [TETRAMETHYLROSAMINE]
fold induction (MDR3 (ABCB1); mouse cysteine-less MDR3): 3.7 | Papp A→B at 1 h, 5 µM (MDR1 [3]): 0.3 ×10⁻⁶ cm/s | Papp A→B at 1 h, 5 µM (MDR1 [4]; [20]): 1.4 ×10⁻⁶ cm/s | Papp B→A at 1 h, 5 µM (MDR1 [5]): 101 ×10⁻⁶ cm/s | Papp B→A at 1 h, 5 µM (MDR1 [6]; [20]): 2.1 ×10⁻⁶ cm/s | Ratio [7]: 338 | efflux ratio at 1 h, 5 µM (MDR1 [8]; MDCK-MDR1): 1.6 | Activity ([9]; mdck-ii, 1 h): 14.5% | Activity ([1]; mdck-ii, 1 h): 54% | Ratio [10]: 4.3 | logP [2]: 1.1

Compound: CN(C)c1ccc2c(-c3ccc(C(=S)N4CCCCC4)s3)c3ccc(=[N+](C)C)cc-3[te]c2c1.F[P-](F)(F)(F)(F)F
Papp A→B at 1 h, 5 µM (MDR1 [3]): 0.09 ×10⁻⁶ cm/s | Papp A→B at 1 h, 5 µM (MDR1 [4]; MDCK-MDR1): 0.12 ×10⁻⁶ cm/s | Papp B→A at 1 h, 5 µM (MDR1 [5]): 2.2 ×10⁻⁶ cm/s | Papp B→A at 1 h, 5 µM (MDR1 [6]; MDCK-MDR1): 0.2 ×10⁻⁶ cm/s | efflux ratio at 1 h, 5 µM (MDR1 [11]): 24 | efflux ratio at 1 h, 5 µM (MDR1 [8]; MDCK-MDR1): 1.7 | Activity ([9]; MDCK-MDR1, 1 h): 12%

fold induction (MDR3 (ABCB1); mouse cysteine-less MDR3): 6
Compound: COC(=O)c1ccccc1-c1c2ccc(=[N+](C)C)cc-2sc2cc(N(C)C)ccc12

fold induction (MDR1 (ABCB1); [19]): 4.3
Compound: CN(C)c1ccc2c(-c3ccsc3C(=O)O)c3ccc(=[N+](C)C)cc-3sc2c1

fold induction (MDR3 (ABCB1); mouse cysteine-less MDR3): 3.5 | fold induction (MDR1 (ABCB1); [19]): 7.7
Compound: CN(C)c1cccc(-c2c3ccc(=[N+](C)C)cc-3sc3cc(N(C)C)ccc23)c1

fold induction (MDR3 (ABCB1); mouse cysteine-less MDR3): 10.6
Compound: CCN(CC)C(=O)c1ccc(-c2c3ccc(=[N+](C)C)cc-3sc3cc(N(C)C)ccc23)s1

fold induction (MDR1 (ABCB1); [19]): 2.7
Compound: CN(C)c1ccc2c(-c3ccc(C(=O)O)s3)c3ccc(=[N+](C)C)cc-3sc2c1

Compound: C[N+](C)=c1ccc2c(-c3ccc(C(=S)N4CCCCC4)s3)c3cc4c5c(c3sc-2c1)CCCN5CCC4.F[P-](F)(F)(F)(F)F
permeability [12]: 0.08 ×10⁻⁶ cm/s | permeability [13]: 0.08 ×10⁻⁶ cm/s | permeability [14]: 5 ×10⁻⁶ cm/s | permeability [15]: 0.16 ×10⁻⁶ cm/s | Activity ([9]; MDCK-MDR1, 1 h): 23% | Activity ([1]; MDCK-MDR1, 1 h): 30% | logP [2]: 2.7

fold induction (MDR3 (ABCB1); mouse cysteine-less MDR3): 2.9
Compound: CCOC(=O)c1ccc(-c2c3ccc(=[N+](C)C)cc-3sc3cc(N(C)C)ccc23)s1

fold induction (MDR3 (ABCB1); mouse cysteine-less MDR3): 10.1
Compound: CCN(CC)C(=O)c1ccccc1-c1c2ccc(=[N+](C)C)cc-2sc2cc(N(C)C)ccc12

IC50 [16]: 20 µM
Compound: C[N+](C)=c1ccc2c(-c3ccc(C(=S)N4CCOCC4)s3)c3cc4c5c(c3sc-2c1)CCCN5CCC4

fold induction (MDR3 (ABCB1); mouse cysteine-less MDR3): 6 | fold induction (MDR1 (ABCB1); [19]): 6.2
Compound: CN(C)c1ccc2c(CCCOc3ccccc3)c3ccc(=[N+](C)C)cc-3sc2c1

Compound: C[N+](C)=c1ccc2c(-c3ccccc3)c3cc4c5c(c3[se]c-2c1)CCCN5CCC4.F[P-](F)(F)(F)(F)F
fold induction (MDR3 (ABCB1); mouse cysteine-less MDR3): 2.1 | IC50 [17]: 0.28 µM | fold induction (MDR1 (ABCB1); [19]): < 1.5 | IC50 [18]: 2.3 µM | Papp A→B at 1 h, 5 µM (MDR1 [3]): 1.6 ×10⁻⁶ cm/s | Papp A→B at 1 h, 5 µM (MDR1 [4]; [20]): 1.3 ×10⁻⁶ cm/s | Papp B→A at 1 h, 5 µM (MDR1 [5]): 25 ×10⁻⁶ cm/s | Papp B→A at 1 h, 5 µM (MDR1 [6]; [20]): 1.2 ×10⁻⁶ cm/s | efflux ratio at 1 h, 5 µM (MDR1 [11]): 15 | efflux ratio at 1 h, 5 µM (MDR1 [8]; [20]): 0.9 | Activity ([9]; mdck-ii, 1 h): 32% | Activity ([1]; mdck-ii, 1 h): 64% | Ratio [10]: 2 | logP [2]: 2.4 | IC50 [16]: 4.9 µM

fold induction (MDR3 (ABCB1); mouse cysteine-less MDR3): 1 | fold induction (MDR1 (ABCB1); [19]): 9
Compound: CN(C)c1ccc(-c2c3ccc(=[N+](C)C)cc-3sc3cc(N(C)C)ccc23)cc1

Compound: COc1ccc(-c2c3ccc(=[N+](C)C)cc-3sc3cc(N(C)C)ccc23)cc1OC.F[P-](F)(F)(F)(F)F
fold induction (MDR3 (ABCB1); mouse cysteine-less MDR3): 3 | fold induction (MDR1 (ABCB1); [19]): 8.2 | Activity ([9]; mdck-ii, 1 h): 16% | Activity ([1]; mdck-ii, 1 h): 53% | logP [2]: 0.28

Compound: CN(C)c1ccc(-c2c3ccc(=[N+](C)C)cc-3[te]c3cc(N(C)C)ccc23)cc1
fold induction (MDR1 (ABCB1); [19]): 4.5

Compound: CN(C)c1ccc2c(-c3ccc(C(=S)N4CCCCC4)s3)c3ccc(=[N+](C)C)cc-3sc2c1
IC50 [17]: 32 µM | logP [2]: 1.7

fold induction (MDR1 (ABCB1); [19]): 4.8
Compound: CN(C)c1ccc2c(-c3ccc(N4CCOCC4)cc3)c3ccc(=[N+](C)C)cc-3sc2c1

fold induction (MDR3 (ABCB1); mouse cysteine-less MDR3): 3.5
Compound: CN(C)c1ccc2c(-c3ccccc3C(=O)O)c3ccc(=[N+](C)C)cc-3sc2c1

Compound: CN(C)c1cccc(-c2c3ccc(=[N+](C)C)cc-3[se]c3c4c5c(cc23)CCCN5CCC4)c1
fold induction (MDR1 (ABCB1); [19]): < 1.5 | IC50 [18]: 23.6 µM

Compound: CN(C)c1ccc(-c2c3ccc(=[N+](C)C)cc-3[se]c3c4c5c(cc23)CCCN5CCC4)cc1
fold induction (MDR1 (ABCB1); [19]): < 1.5 | IC50 [18]: 6.8 µM

Compound: COc1cccc(-c2c3ccc(=[N+](C)C)cc-3[te]c3cc(N(C)C)ccc23)c1
fold induction (MDR1 (ABCB1); [19]): 5.7

Compound: CN(C)c1ccc2c(-c3ccccc3)c3ccc(=[N+](C)C)cc-3[se]c2c1
fold induction (MDR3 (ABCB1); mouse cysteine-less MDR3): 4 | fold induction (MDR1 (ABCB1); [19]): 7.2 | IC50 [16]: 11 µM

Compound: CN(C)c1ccc2c(-c3ccccc3)c3ccc(=[N+](C)C)cc-3[te]c2c1
fold induction (MDR1 (ABCB1); [19]): 8.4

fold induction (MDR3 (ABCB1); mouse cysteine-less MDR3): 1.7 | fold induction (MDR1 (ABCB1); [19]): 2.1
Compound: CN(C)c1ccc2c(-c3ccsc3C(=O)O)c3ccc(=[N+](C)C)cc-3[se]c2c1

Compound: CN(C)c1ccc2c(-c3ccc(N4CCOCC4)cc3)c3ccc(=[N+](C)C)cc-3[se]c2c1
fold induction (MDR3 (ABCB1); mouse cysteine-less MDR3): < 1 | IC50 [17]: 23 µM | fold induction (MDR1 (ABCB1); [19]): 3.3

Compound: C[N+](C)=c1ccc2c(-c3ccc(C(=S)N4CCCCC4)s3)c3cc4c5c(c3[te]c-2c1)CCCN5CCC4
IC50 [16]: 14 µM

Compound: CN(C)c1ccc2c(-c3ccc(C(=O)O)s3)c3ccc(=[N+](C)C)cc-3[te]c2c1
fold induction (MDR1 (ABCB1); [19]): 1.8

Compound: CN(C)c1ccc(-c2c3ccc(=[N+](C)C)cc-3[se]c3cc(N(C)C)ccc23)cc1
fold induction (MDR3 (ABCB1)): 2.3 | IC50 [17]: 21 µM | fold induction (MDR1 (ABCB1); bhk): 6.8

Compound: CCN(CC)C(=O)c1ccc(-c2c3ccc(=[N+](C)C)cc-3[se]c3cc(N(C)C)ccc23)s1.F[P-](F)(F)(F)(F)F
fold induction (MDR3 (ABCB1); mouse cysteine-less MDR3): 10.1 | fold induction (MDR1 (ABCB1); [19]): 10.5 | Activity ([9]; mdck-ii, 1 h): 11% | Activity ([1]; mdck-ii, 1 h): 24% | logP [2]: -0.39

Compound: CN(C)c1cccc(-c2c3ccc(=[N+](C)C)cc-3[te]c3cc(N(C)C)ccc23)c1
fold induction (MDR1 (ABCB1); [19]): 5.5

Compound: C[N+](C)=c1ccc2c(-c3ccc(C(=S)N4CCCCC4)s3)c3cc4c5c(c3[se]c-2c1)CCCN5CCC4
IC50 [16]: 5.3 µM

Compound: C[N+](C)=c1ccc2c(-c3ccc(C(=S)N4CCOCC4)s3)c3cc4c5c(c3[se]c-2c1)CCCN5CCC4
IC50 [16]: 14 µM

From ChEMBL document CHEMBL1138514, “Rhodamine inhibitors of P-glycoprotein: an amide/thioamide "switch" for ATPase activity” (J Med Chem, 2009)
